Assay results published in patent publication EP0567613B1, “COMPOSITIONS FOR THERAPY AND PREVENTION OF CANCER” (The Government of the United States of America, as …, priority 1991, dated 1993).

Experiments:
[1] = system: Kaposi's Sarcoma KS; assay: Tumor cell growth / proliferation; type: cell-based; settings: read-out: % Inhibition by NaPA 0.8 mg/ml
[2] = system: adipocyte-specific aP2 gene; assay: Northern blot analysis of aP2 expression; type: cell-based, mouse; settings: treated confluent 10T1/2 cultures
Protocol: (§1) Cytoplasmic RNA (20 µg/lane) was subjected to Northern blot analysis using ^32P-labeled specific DNA probes. Ethidium bromide-stained […] indicates the relative amounts of total RNA in each lane. Figure A. Induction of a P2 expression in 10T1/2 cells. […] Figure B. Kinetics of myc inhibition and HLA-A induction in HL-60. […] Figure C. Dose-dependent and specificity of effect.
In an attempt to explore the possible mechanism of action, Northern blot analysis of HL-60 and 10T1/2 cells was performed according to conventional methods. […] The aP2 cDNA probe was labeled with [^32P]dCTP (NEN) using a commercially available random primed DNA labeling kit. Ethidium bromide-stained 28S rRNA indicates the relative amounts of total RNA in each lane.
Expression of the adipocyte-specific aP2 gene was induced within 24 hrs in treated 10T1/2 confluent cultures reaching maximal mRNA levels by 72 hrs.

[3] = system: Malignant Melanoma A375; assay: Tumor cell growth / proliferation
[4] = system: HL-60; assay: Granulocyte differentiation (NBT reduction, morphology) and viability by trypan blue exclusion
Protocol: The number of NBT positive cells was determined after 4 [solid bars] or 7 days [hatched bar] of treatment. […] Glutamine Starvation (Gln, < 0.06 mM) was as described (18).
The ability of cells to reduce nitroblue tetrazolium (NBT) is indicative of oxidase activity which is characteristic of the more mature forms of human bone marrow granulocytes. NBT reduction thus serves as an indicator of granulocyte differentiation. […] Glutamine starvation (Gln, < 0.06 mM) was as described. […] DON, ACV and HPA are glutamine antagonists.

[5] = system: Astrocytoma U373; assay: Tumor cell growth / proliferation; type: cell-based; settings: Homo sapiens
[6] = system: Breast Cancer MCF-7; assay: Tumor cell growth / proliferation; type: cell-based; settings: Homo sapiens
Text: (§2) • # 7-10 For effective responses, the tumors may require much higher drug concentrations if used alone.

[7] = system: Fibrosarcoma RS485; assay: Tumor cell growth / proliferation; type: cell-based; settings: read-out: % Inhibition by NaPA 0.8 mg/ml
Text: as §2

[8] = system: Squamous Cancer of Head & Neck A431; assay: Tumor cell growth / proliferation; type: cell-based; settings: Homo sapiens
Text: as §2

[9] = system: C3H 10T1/2 Cells; assay: Tumorigenicity of treated cells in athymic mice; settings: NaPA 1.6 mg/ml continuous, time 13 weeks
Protocol: Premalignant cells (3-4 x 10^5) were plated in 75 cm^2 dishes and 5-AzadC 0.1 µM was added to the growth medium at 20 and 48 hrs after plating. The cells were then subcultured in the absence of the nucleoside analog for an additional seven weeks. […] For the tumorigenicity assay, 4-5 week-old female athymic nude mice were inoculated s.c. with 1 x 10^6 cells and observed for tumor growth at the site of injection.

[10] = system: HLA-A; assay: Northern blot analysis of HLA-A mRNA in HL-60; type: cell-based, human; settings: HL-60, NaPA 0.8 and 1.6 mg/ml
Protocol: as §1
In HL-60, cell transformation has been linked to myc amplification and overexpression, and differentiation would typically require down regulation of myc expression. [Collins, S.J. The HL-60 promyelocytic leukemia cell line: Proliferation, differentiation, and cellular oncogene expression. Blood. 70:1233-1244 (1987)]. […] The 32P-labeled probes used were myc 3rd exon (Oncor) and HLA-A3 Hind III/EcoRI fragment. […] This occurred within 4 hours of treatment, preceding the phenotypic changes detectable by 48 hrs, approximately two cell cycles, after treatment. Similar kinetics of myc inhibition have been reported for other differentiation agents such as dimethyl sulfoxide, sodium butyrate, bromodeoxyuridine, retinoids, and 1,25-dihydroxyvitamin D3. […] It is believed that this may enhance the immunogenicity of tumors in vivo.

[11] = system: Osteosarcoma KRIB; assay: Tumor cell growth / proliferation; type: cell-based
Text: as §2
(§3) A differential effect was seen also in ras-transformed fibrosarcoma V7T, when compared to the parental non-tumorigenic N1H3T3 cells.

[12] = system: Osteosarcoma HOS; assay: Tumor cell growth / proliferation; type: cell-based; settings: read-out: % Inhibition by NaPA 0.8 mg/ml
Text: as §2, §3

[13] = system: Fibrosarcoma V7T; assay: Tumor cell growth / proliferation; type: cell-based
Text: as §2, §3

[14] = system: HL-60; assay: Cell proliferation (cell number); type: cell-based, human
Protocol: The adherent cells were detached with trypsin/EDTA and the cell number determined using a hemocytometer. Data points indicate the mean ± S.D. of duplicates from two independent experiments. The cell lines were obtained from the American Type Culture Collection and maintained in RPMI 1640 (HL-60) or Dulbecco's Modified Eagle's Medium (10T1/2) supplemented with 10% heat inactivated fetal calf serum (Gibco Laboratories), 2 mM L-Glutamine, and antibiotics.

[15] = system: primary human skin FS4 fibroblasts; assay: Growth of normal cells; type: cell-based; settings: Fibroblast, read-out: concentration needed to cause a significant inhibition of growth
[16] = system: Astrocytoma U343; assay: Tumor cell growth / proliferation; type: cell-based
[17] = system: lung adenocarcinoma H661; assay: Tumor cell growth / proliferation; type: cell-based; settings: Homo sapiens, NCI-H661; read-out: concentration causing about 50% inhibition of growth
[18] = system: intracellular glutathione; assay: Induction of intracellular glutathione; type: cell-based; settings: normal or tumor cells, depending on growth conditions
Text: It is known that intracellular glutathione plays a major role in detoxification and repair of cellular injury by chemical and physical carcinogens. […] Nontoxic agents that can induce glutathione are highly desirable since these are likely to protect cells from damage by a variety of chemical carcinogens and ionizing radiation.

[19] = after seven days of NaPA treatment, or four days when combined with RA
[20] = read-out: % Inhibition by NaPA 0.8 mg/ml, 0.8 mg/ml
[21] = read-out: concentration causing about 50% inhibition of growth

With O=C([O-])Cc1ccccc1.[Na+] [NaPA, sodium phenylacetate] the inhibition at 800 µg/mL [1] was at most 40%, the “time to induction of aP2 gene expression” value [2] was at most 24 h and the “time to maximal aP2 mRNA levels” value [2] was at most 72 h. For the same compound, the “concentration causing about 50% inhibition of growth” value ([3]; A375) was 0.4 to 0.8 mg/mL, the “% Inhibition by NaPA 0.8 mg/ml” value ([3]; A375, 0.8 mg/ml, within one week of treatment) was at least 70% and the Growth ([3]; NaPA 400 µg/ml) was 63.3 % of control. The Viability ([3]; NaPA 400 µg/ml) was over 95%, the “granulocyte differentiation (NBT positive cells)” value ([4]; NaPA 0.8 and 1.6 mg/ml, 4 or 7 days) was “capable of inducing granulocyte differentiation in HL-60” and the “banded and segmented neutrophils capable of NBT” value [4, 19] was 30-40%. For the same compound, the “early stage myelocytes and metamyelocytes” value [4, 19] was 30-50%, the IC50 ([5]; U373 MG, read-out: concentration causing about 50% inhibition of growth) was 400 to 800 µg/mL and the inhibition at 800 µg/mL ([5]; read-out: % Inhibition by NaPA 0.8 mg/ml, U373, 0.8 mg/ml) was at least 50%. It also gave an inhibition at 800 µg/mL ([6]; MCF7, read-out: % Inhibition by NaPA 0.8 mg/ml, MCF-7, 0.8 mg/ml) of at most 30%, an IC50 ([6]; MCF7, breast tumor MCS-7, read-out: concentration causing about 50% inhibition of growth) of 1000 to 1500 µg/mL and an inhibition at 800 µg/mL [7] of at most 30%. The inhibition at 800 µg/mL ([8]; A-431, read-out: % Inhibition by NaPA 0.8 mg/ml, 0.8 mg/ml) was under 30%, the IC50 ([8]; A-431, read-out: concentration causing about 50% inhibition of growth) was 1000 to 1500 µg/mL and the “Tumors Diameter” value [9] was 0 mm ± S.D. For the same compound, the “Tumors Incidence” value ([9]; 1 x 10^6 cells s.c.) was 0/8, the “HLA-A mRNA” value [10] was “time- and dose-dependent accumulation of HLA-A mRNA” and the inhibition at 800 µg/mL [11, 20] was at most 30%. The IC50 [11, 21] was 1000 to 1500 µg/mL, the inhibition at 800 µg/mL [12] was under 20% and the inhibition at 800 µg/mL [13, 20] was at most 30%. For the same compound, the IC50 [13, 21] was 1000 to 1500 µg/mL, the inhibition at 800 µg/mL ([14]; Homo sapiens, read-out: % Inhibition by NaPA 0.8 mg/ml, HL-60, 0.8 mg/ml) was at most 40% and the cell proliferation ([14]; treated for four days) was “dose dependent inhibition of cell proliferation”. It also gave a minimal effective concentration [15] of 2000 to 4000 µg/mL, an IC50 ([16]; astrocytoma 343, read-out: concentration causing about 50% inhibition of growth) of 400 to 800 µg/mL and an inhibition at 800 µg/mL ([16]; read-out: % Inhibition by NaPA 0.8 mg/ml, U343, 0.8 mg/ml) of at least 50%. The IC50 [17] was 400 to 800 µg/mL and the “induction of the activity of intracellular glutathione” value [18] was 2-10 fold.
